Here are results for eight molecules from ChEMBL document CHEMBL1201862, “PubChem BioAssay data set” (2004).

Where “and” joins values, the source holds several entries; their conditions need not be identical. Equal entries are not always repeated. Calls of active or inactive are those of the source.

For assay [1], the system named is Vero. The assay is described as follows: mammalian cell viability reduction – secondary assay, cytotoxicity control for West Nile virus antiviral project, dose response (AID 1650). Type of assay: functional. As to conditions: Chlorocebus sabaeus.
The nature of assay [2]: reduced cellular PGC1a acetyl-lysine signal – cell-based, cherry-picked samples, dose response (AID 720514).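 Note: potency may reflect raised or lowered acetylation signal.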 It is filed as functional.
A short description of assay [3]: viability of uninfected HEp-2 cells – cell-based, HTS, cytotoxicity control for RSV inhibitor project, dose response (AID 2410). It is filed as functional. The following applies: human respiratory syncytial virus.
Assay [4] can be described thus: HPDE-C7 pancreatic duct cell viability loss – fluorescence, HTS (AID 430). The following applies: Homo sapiens. It is filed as functional, cell-based.
Assay [5] in a line: viability loss of HPDE-C7K cells – cell-based, fluorescence, HTS, primary screen (AID 431). Type of assay: functional. As to conditions: Homo sapiens.
The test system of assay [6] is Vero. The assay is described as follows: inhibition of WNV-induced cytopathic effect – cell-based, CPE readout (AID 1621). The following applies: Chlorocebus sabaeus. It is filed as functional.
For assay [7], the system named is Vero. In words: cells. The following applies: Chlorocebus sabaeus. Type of assay: functional.
Assay [8] concerns the target T1, Tyrosine-protein phosphatase non-receptor type 7 (Homo sapiens, UniProt P35236).
T1 sequence (P35236 whole entry): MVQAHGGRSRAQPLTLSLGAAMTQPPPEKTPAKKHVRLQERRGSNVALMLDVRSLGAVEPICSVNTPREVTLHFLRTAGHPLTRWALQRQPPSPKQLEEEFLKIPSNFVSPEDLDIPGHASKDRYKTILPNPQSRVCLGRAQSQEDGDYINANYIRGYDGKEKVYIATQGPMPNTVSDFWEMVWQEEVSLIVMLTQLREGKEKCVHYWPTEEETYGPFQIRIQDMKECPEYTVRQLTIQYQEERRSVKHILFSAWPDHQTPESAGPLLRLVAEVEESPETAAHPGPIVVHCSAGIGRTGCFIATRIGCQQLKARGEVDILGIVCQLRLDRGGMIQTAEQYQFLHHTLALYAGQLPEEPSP
In words: HePTP tyrosine phosphatase activity blockers – biochemical, absorbance, leukemia target, primary screen (AID 521). Type of assay: functional.

For assay [9], the target named is T2, Bcl-2-related protein A1 (Mus musculus, UniProt Q07440).
T2 sequence (Q07440 whole entry): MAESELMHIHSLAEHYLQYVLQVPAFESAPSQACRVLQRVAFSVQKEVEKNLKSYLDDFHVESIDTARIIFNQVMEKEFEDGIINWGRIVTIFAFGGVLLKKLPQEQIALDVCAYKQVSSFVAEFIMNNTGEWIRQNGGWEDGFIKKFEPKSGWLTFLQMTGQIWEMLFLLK
In words: displacement of Bid BH3 peptide from Bfl-1 – biochemical, fluorescence polarization, FITC-Bid, mouse, primary screen (AID 432). (In fluorescence polarisation assays a small probe gives low polarisation when free and higher when bound to something large.)

Assay [10] has as its target Glyceraldehyde-3-phosphate dehydrogenase (Homo sapiens, UniProt P04406).
Assay [11] deals with T2, Bcl-2-related protein A1. The assay is described as follows: small-molecule antagonists of Bfl-1/BH3 interaction – biochemical, TR-FRET, mouse Bfl-1, confirmation (AID 621).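 Note: TR-FRET binding of GST-Bfl-1 to FITC-labelled Bid peptide via terbium antibody.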 For orientation: Time-resolved FRET reads energy transfer from a long-lived donor to a nearby acceptor.
The target of assay [12] is T2, Bcl-2-related protein A1. The assay is described as follows: Bfl-1 binding inhibitors, SAR follow-up, biochemical, fluorescence polarization (AID 1070).
The target in assay [13] is Voltage-gated inwardly rectifying potassium channel KCNH2 (Homo sapiens, UniProt Q12809). The assay is described as follows: concentration-dependent hERG rescue from blockers – cell-based, thallium flux, dose response (AID 2121). Type of assay: ADME.
In assay [14] the target is T3, Sphingosine 1-phosphate receptor 2 (Homo sapiens, UniProt O95136). In words: Dose Response Cell Based Assay for Agonists of the S1P2 Receptor of Purchased Analogues. [Related pubchem assays: 729, 843, 854, 736 ]. Type of assay: functional.
Assay [15] concerns the target T3, Sphingosine 1-phosphate receptor 2. The assay is described as follows: Dose Response Cell Based Assay for Antagonists of the S1P2 Receptor. [Related pubchem assays: 856, 736 ]. It is filed as functional.
A further assay has as its target T4, Protein skinhead-1 (Caenorhabditis elegans, UniProt P34707).
T4 sequence (P34707 whole entry): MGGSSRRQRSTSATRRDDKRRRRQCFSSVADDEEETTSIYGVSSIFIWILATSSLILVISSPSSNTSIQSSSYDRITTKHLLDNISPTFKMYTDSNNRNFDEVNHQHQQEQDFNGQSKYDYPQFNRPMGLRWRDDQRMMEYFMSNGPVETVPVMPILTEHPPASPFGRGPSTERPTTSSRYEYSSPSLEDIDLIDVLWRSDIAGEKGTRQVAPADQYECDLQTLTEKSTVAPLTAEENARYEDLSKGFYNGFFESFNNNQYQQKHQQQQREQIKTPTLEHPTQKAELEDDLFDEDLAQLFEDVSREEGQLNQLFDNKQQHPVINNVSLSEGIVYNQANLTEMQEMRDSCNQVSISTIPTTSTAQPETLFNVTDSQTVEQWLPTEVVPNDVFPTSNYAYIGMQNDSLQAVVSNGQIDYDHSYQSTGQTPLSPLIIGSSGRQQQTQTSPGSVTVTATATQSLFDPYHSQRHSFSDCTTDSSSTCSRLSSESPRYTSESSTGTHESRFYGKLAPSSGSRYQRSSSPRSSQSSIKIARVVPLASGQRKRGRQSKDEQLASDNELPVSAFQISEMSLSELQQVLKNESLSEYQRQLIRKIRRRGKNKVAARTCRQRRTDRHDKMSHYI
It is filed as functional.

The target in another assay is Cytochrome P450 2C19 (Homo sapiens, UniProt P33261). In words: qHTS Assay for Inhibitors and Substrates of Cytochrome P450 2C19. [Related pubchem assays: 410 ]. Type of assay: ADME. As to conditions: read-out: Potency. (Quantitative high-throughput screening tests each substance at several concentrations.)
The next assay has as its target Cytochrome P450 2D6 (Homo sapiens, UniProt P10635). In words: qHTS Assay for Inhibitors and Substrates of Cytochrome P450 2D6. [Related pubchem assays: 410 ]. It is filed as ADME. As to conditions: read-out: Potency.
In another assay the target is Cytochrome P450 3A4 (Homo sapiens, UniProt P08684). As to conditions: Potency.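 Note: confirmatory qHTS run detecting inhibitors and substrates of CYP3A4.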
Cytochrome P450 3A4, sequence (P08684 whole entry): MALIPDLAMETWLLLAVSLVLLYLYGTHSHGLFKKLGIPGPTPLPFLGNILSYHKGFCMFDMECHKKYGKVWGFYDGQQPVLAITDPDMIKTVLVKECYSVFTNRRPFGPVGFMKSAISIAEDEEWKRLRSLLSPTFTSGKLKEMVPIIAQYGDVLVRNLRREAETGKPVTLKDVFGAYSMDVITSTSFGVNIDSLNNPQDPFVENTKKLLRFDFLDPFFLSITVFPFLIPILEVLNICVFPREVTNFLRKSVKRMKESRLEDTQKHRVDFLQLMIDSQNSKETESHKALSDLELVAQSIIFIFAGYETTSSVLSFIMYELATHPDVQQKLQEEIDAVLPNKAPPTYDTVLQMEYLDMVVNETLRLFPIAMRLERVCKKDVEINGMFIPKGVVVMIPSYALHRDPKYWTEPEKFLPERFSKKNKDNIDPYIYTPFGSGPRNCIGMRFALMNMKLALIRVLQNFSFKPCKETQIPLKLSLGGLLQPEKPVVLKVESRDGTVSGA

T3 sequence (O95136 whole entry): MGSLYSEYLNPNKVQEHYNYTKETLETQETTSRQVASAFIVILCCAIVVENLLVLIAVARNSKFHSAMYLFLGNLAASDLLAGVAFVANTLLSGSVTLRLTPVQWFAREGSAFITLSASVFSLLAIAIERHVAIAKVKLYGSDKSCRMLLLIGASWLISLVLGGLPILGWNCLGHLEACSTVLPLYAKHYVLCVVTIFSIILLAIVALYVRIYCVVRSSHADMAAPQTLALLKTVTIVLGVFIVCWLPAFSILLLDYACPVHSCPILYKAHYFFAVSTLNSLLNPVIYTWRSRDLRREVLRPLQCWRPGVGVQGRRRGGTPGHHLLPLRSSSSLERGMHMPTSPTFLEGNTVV
Voltage-gated inwardly rectifying potassium channel KCNH2, sequence (Q12809 whole entry): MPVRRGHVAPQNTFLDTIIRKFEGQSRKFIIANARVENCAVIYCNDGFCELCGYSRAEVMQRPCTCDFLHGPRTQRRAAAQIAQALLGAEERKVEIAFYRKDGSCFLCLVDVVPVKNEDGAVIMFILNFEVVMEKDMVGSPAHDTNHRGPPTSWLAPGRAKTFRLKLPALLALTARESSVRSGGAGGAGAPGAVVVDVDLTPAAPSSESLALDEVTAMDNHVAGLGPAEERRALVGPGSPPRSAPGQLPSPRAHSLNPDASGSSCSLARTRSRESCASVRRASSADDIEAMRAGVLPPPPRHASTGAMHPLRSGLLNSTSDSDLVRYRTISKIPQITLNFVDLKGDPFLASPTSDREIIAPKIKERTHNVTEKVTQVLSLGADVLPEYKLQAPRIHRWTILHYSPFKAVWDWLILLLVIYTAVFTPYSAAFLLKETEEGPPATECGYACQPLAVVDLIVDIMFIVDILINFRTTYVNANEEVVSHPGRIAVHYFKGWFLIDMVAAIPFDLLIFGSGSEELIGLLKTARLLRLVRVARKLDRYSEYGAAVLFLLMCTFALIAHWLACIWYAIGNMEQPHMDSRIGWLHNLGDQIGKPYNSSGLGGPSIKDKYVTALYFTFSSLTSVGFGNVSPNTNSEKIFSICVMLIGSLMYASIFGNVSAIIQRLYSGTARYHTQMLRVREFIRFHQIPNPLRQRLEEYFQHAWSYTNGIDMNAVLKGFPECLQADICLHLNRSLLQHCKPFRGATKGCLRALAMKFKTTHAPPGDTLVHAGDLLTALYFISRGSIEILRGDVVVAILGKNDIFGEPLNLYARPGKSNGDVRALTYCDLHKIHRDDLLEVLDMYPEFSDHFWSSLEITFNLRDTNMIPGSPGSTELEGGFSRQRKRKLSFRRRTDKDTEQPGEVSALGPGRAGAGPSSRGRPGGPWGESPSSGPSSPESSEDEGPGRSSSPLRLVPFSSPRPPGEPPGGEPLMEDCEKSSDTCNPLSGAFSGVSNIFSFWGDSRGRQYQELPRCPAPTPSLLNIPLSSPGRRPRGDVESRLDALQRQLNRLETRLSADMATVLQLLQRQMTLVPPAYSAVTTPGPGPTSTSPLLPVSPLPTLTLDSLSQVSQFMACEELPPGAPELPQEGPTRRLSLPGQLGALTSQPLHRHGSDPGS
Cytochrome P450 2D6, sequence (P10635 whole entry): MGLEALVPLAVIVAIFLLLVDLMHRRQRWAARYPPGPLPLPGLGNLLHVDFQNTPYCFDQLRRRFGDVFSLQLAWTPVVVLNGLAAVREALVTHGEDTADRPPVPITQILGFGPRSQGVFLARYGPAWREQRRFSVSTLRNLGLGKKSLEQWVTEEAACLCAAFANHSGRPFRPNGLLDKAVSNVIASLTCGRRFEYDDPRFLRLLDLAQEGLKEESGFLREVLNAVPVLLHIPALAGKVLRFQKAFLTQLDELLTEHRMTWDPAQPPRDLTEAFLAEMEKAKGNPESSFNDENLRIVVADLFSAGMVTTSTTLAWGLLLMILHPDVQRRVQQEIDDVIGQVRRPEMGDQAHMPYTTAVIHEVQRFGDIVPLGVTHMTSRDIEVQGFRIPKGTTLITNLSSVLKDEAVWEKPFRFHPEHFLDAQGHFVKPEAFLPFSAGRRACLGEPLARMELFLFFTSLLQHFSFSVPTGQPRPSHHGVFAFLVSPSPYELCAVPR
Cytochrome P450 2C19, sequence (P33261 whole entry): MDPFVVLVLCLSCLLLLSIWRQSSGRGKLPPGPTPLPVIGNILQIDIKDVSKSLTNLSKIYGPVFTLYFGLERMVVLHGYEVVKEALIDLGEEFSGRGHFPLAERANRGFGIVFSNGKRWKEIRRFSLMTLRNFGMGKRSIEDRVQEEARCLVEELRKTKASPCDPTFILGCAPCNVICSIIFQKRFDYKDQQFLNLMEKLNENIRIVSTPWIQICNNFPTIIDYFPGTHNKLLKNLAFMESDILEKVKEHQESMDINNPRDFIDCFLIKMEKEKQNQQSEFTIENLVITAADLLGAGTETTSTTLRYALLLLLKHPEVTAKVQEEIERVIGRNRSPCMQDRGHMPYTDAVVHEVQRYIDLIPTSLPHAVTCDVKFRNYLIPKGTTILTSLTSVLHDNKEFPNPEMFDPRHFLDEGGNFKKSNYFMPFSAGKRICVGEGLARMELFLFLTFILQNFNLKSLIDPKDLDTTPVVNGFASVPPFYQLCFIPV
Glyceraldehyde-3-phosphate dehydrogenase, sequence (P04406 whole entry): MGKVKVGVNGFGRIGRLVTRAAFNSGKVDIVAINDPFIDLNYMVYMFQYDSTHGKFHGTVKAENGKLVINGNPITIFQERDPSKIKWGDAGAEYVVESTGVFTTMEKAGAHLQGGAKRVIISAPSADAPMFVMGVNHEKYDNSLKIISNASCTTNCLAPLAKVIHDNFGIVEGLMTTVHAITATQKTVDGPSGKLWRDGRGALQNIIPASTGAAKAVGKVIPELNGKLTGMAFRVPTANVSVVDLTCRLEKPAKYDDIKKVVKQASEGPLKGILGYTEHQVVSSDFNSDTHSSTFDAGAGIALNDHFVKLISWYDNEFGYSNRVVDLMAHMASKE

Turning to `CCOC(=O)C(CC)(CC)C(=O)/C=C/c1ccc(Br)cc1`, the 50% cytotoxic concentration (CC50) in the assay with Vero [1] is 40.6 µM (active). Besides, in [2], the AC50 is 20.6 µM (active).
For the molecule `Cc1oc(C)c2c(=O)ccc3c(c12)OC(N)=C(C#N)C3c1ccc(F)cc1` (centres undefined), in assay [3], the CC50 was 21.6 µM (active). For the same molecule, the results for the EC50 in assay [4] and in assay [5] were 10.3 µM (active) and 9.61 µM (active), respectively.
Consider `CCCN1CCN(CCCNC(=O)c2cc3c(s2)-c2ccccc2OC3)CC1`, for which the 50% inhibitory concentration (IC50) in the assay with Vero [6] was 20 µM (active). Further, the 50% cytotoxic concentration (CC50) in the assay on Vero [7] is > 25 µM (active).
`COc1ccc2nc(O)c(-c3noc(-c4ccc(F)cc4)n3)cc2c1`: the half-maximal inhibitory concentration (IC50) in assay [8] is 2.18 µM (active); on Bcl-2-related protein A1 [9], 6.15 µM (active); in assay [10], > 100 µM (not active); at Bcl-2-related protein A1 [11] it was 4.45 µM (active) and 3.6 µM (active); on Bcl-2-related protein A1 [12] it was 3.85 µM (active).
On to `CCCn1c(SCC(N)=O)nc2c(c1=O)C1(CCCC1)Cc1ccccc1-2`, for which, in assay [13], the EC50 was 4.67 µM (active).
Turning to `Cc1cc(C(=O)CN2C(=O)NC3(CCc4ccccc43)C2=O)c(C)n1Cc1ccccc1` (centres undefined), the EC50 in assay [14] is > 30 µM (not active).
As to `Cc1ccc(NC2=Nc3ccccc3N3C2=Nc2c(c(C)nn2-c2ccccc2)C3c2ccc(O)c(O)c2)cc1` (centres undefined), the IC50 was 4.5 µM (active) in assay [15] and > 100 µM (inactive) on Protein skinhead-1.
Regarding `CCCCCCC#CC1C=CC(OC(C)=O)C(COC(C)=O)O1` (centres undefined), the AC50 is 3.98 µM (inconclusive) at Cytochrome P450 2C19, 7.94 µM (inconclusive) at Cytochrome P450 2D6 and 3.98 µM (inconclusive) on Cytochrome P450 3A4.

The CC50 is the concentration giving 50% cytotoxicity. A word on the EC50: it is the concentration at which the effect is half-maximal. Broadly, the IC50 is the concentration at which inhibition is half-maximal.
